The source of these data is EP2603503B1, “DABIGATRAN ETEXILATE BISMESYLATE SALT, SOLID STATE FORMS AND PROCESS FOR PREPARATION THEREOF” (ratiopharm GmbH, priority 2010, dated 2012).

Values after ≈ are worked out from the molar mass of the structure shown. Where a name gives a salt, the structure may show the parent alone. Read-outs that look alike come from different tables or passages of the source.

The nature of series [1]: storage stability (temperature / relative humidity). The following applies: at least two weeks. The class given is physicochemical.
The next series is described as follows: solubility in water. It counts as physicochemical.
The conditions of series [2]: temperature not stated; cited from earlier work.

With `CCCCCCOC(=O)NC(=N)c1ccc(NCc2nc3cc(C(=O)N(CCC(=O)OCC)c4ccccn4)ccc3n2C)cc1` [Dabigatran etexilate bismesylate], the stable upon storage entry in series [1] (about 25°C, relative humidity (RH) about 60%) was “stable”; in series [1] (about 40°C, RH about 75%), “stable”. The “solubility in water at 37 °C” value in “solubility in water” is 33.9 mg/mL.

As for `CCCCCCOC(=O)NC(=N)c1ccc(NCc2nc3cc(C(=O)N(CCC(=O)OCC)c4ccccn4)ccc3n2C)cc1` [Dabigatran etexilate monomesylate, ethyl 3-{[(2-{[(4-{N'-[(hexyloxy)carbonyl]carbamimidoyl}phenyl)amino]methyl}-1-methyl-1H-benzimid-azol-5-yl)carbonyl] (2-pyridinyl)amino}propanoate mesylate salt, reference compound], in the series “solubility in water” (mesylate salt), the “solubility in water at 37 °C” value is 14.7 mg/mL.

For the compound `CCCCCCOC(=O)NC(=N)c1ccc(NCc2nc3cc(C(=O)N(CCC(=O)OCC)c4ccccn4)ccc3n2C)cc1` [Dabigatran etexilate, Ethyl 3-[(2-{[4-(hexyloxycarbonylaminoiminomethyl)phenylamino]methyl}-1-methyl-1H-benzimidazole-5-carbonyl)pyridin-2-ylamino]propionate base], in series [2], the solubility in water is 1.8 mg/mL (≈ 2870 µM).
